Here are results for 28 molecules from US7563793B2, “Pyrrolo[1,2-a]quinoxalin-5-(4H)-yl)sulfonyls and carbonyls and their use as estrogenic agents” (Wyeth, priority 2004, dated 2009).

In one data set the test system is IL-6. As to the kind of experiment: IL-6 assay (ELISA) in Ad5-wt-ER infected HAECT-1 cells (IL-1β induced). It counts as cell-based, human. The note with it: Homo sapiens; for IC50: HAECT1; for Emax: HAECT1, relative to maximal inhibition observed with E2, read-out: IL-6 Efficacy. On the procedure:
(§1) After four hours, cells were washed with EBM-BSA and incubated overnight in the same medium. […] After two hours, cells were washed and incubated at 34° C. for 1 hour. […] Control (no ER infection) cells were processed as above without Ad5-wt-hERα virus infection. […] Cells were subsequently washed with 300 μl of Dulbecco's phosphate buffered saline and lysed in 50 μl of Cell Culture Lysis Reagent (Promega). Luciferase was determined on a Wallac Victor^2 Luminometer (Gaithersburg, Md.) using 10 μl of lysate and mixing with 100 lμof Promega Luciferase Assay reagent. […] For IC50 and EC50 calculations, mean IL-6, luciferase or CK values versus log10 of the compound concentration were fitted to a four parameter logistic equation. The IC50/EC50 value, ‘Hill slope’, upper and lower limits of the curve were iteratively estimated.
Background: ELISA stands for enzyme-linked immunosorbent assay.

The test system of the next data set is ER/Nf-kB. In words: ER/NF-κB luciferase reporter assay in Ad5-wt-ER infected HAECT-1 cells (IL-1β induced). It counts as cell-based, human. The note with it: for ER/Nf-kB Efficacy: relative to maximal inhibition observed with E2. On the procedure: as §1
The next data set has as its system creatine kinase. In words: Creatine kinase assay in Ad5-wt-ER infected HAECT-1 cells. The note with it: relative to maximal stimulation observed with E2. It counts as cell-based, human. The protocol: as §1

`CCC1c2ccc(C#N)n2-c2cc(F)c(F)cc2N1S(=O)(=O)c1ccc(O)cc1` (stereo not drawn) [Example 93, 4-ethyl-7,8-difluoro-5-[(4-hydroxyphenyl)sulfonyl]-4,5-dihydropyrrolo[1,2-a]quinoxaline-1-carbonitrile] showed a melting point of 205 °C. In the data set on IL-6, the IC50 is 299 nM and the Emax turned out to be 105%.

Take `CCC1c2ccc(C=O)n2-c2ccc(F)cc2N1S(=O)(=O)c1ccc(O)c(C)c1` (stereo not drawn) [Example 25, 4-ethyl-7-fluoro-5-[(4-hydroxy-3-methylphenyl)sulfonyl]-4,5-dihydropyrrolo[1,2-a]quinoxaline-1-carboxaldehyde]: the melting point was in the range of 192 to 194 °C.

`CCC1c2cccn2-c2c(cc(F)c(F)c2F)N1S(=O)(=O)c1ccc(O)cc1` (stereo not drawn) [Example 98, 4-[(4-ethyl-7,8,9-trifluoropyrrolo[1,2-a]quinoxalin-5(4H)-yl)sulfonyl]phenol] showed a melting point of 175 to 176 °C. In the data set on IL-6, inhibition was half-maximal at 92 nM (IC50) and the Emax is 117%.

`CCC1c2ccc(C(N)=O)n2-c2ccc(F)cc2N1S(=O)(=O)c1ccc(O)cc1` (stereo not drawn) [Example 36, 4-ethyl-7-fluoro-5-[(4-hydroxyphenyl)sulfonyl]-4,5-dihydropyrrolo[1,2-a]quinoxaline-1-carboxamide]: the melting point is 168 to 170 °C (dec.).

`CC[C@@H]1c2cccn2-c2ccc(Br)cc2N1S(=O)(=O)c1ccc(O)cc1` [Example 78, 4-{[(4R)-7-bromo-4-ethylpyrrolo[1,2-a]quinoxalin-5(4H)-yl]sulfonyl}phenol] had a melting point of 187 to 189 °C. Besides, in the data set with IL-6, it took 1100 nM to reach half-maximal inhibition (IC50) and the Emax came out at 40%.

In the case of `CCC1c2cccn2-c2ccc(F)cc2N1S(=O)(=O)c1ccc(O)c(C)c1` (stereo not drawn) [Example 19, 4-[(4-ethyl-7-fluoropyrrolo[1,2-a]quinoxalin-5-(4H)-yl)sulfonyl]-2-methylphenol], in the data set on ER/Nf-kB, the IC50 amounted to 34 nM and the “ER/Nf-kB Efficacy” value is listed as 94%. Also, in the data set with creatine kinase, the “CK Efficacy” value is 52%.

In turn, `CCC1c2ccc(C#N)n2-c2cc(F)c(F)cc2N1S(=O)(=O)c1cccc(O)c1` (stereo not drawn) [Example 85, 4-ethyl-7,8-difluoro-5-[(3-hydroxyphenyl)sulfonyl]-4,5-dihydropyrrolo[1,2-a]quinoxaline-1-carbonitrile] showed a melting point of 179 to 182 °C. For the same molecule, in the data set on IL-6, half-maximal inhibition (IC50) required 696 nM and the Emax is 112%.

Molecule `CCC1c2cccn2-c2ccc(Cl)cc2N1C(=O)c1ccc(O)cc1O` (stereo not drawn) [Example 124, 4-[(7-chloro-4-ethylpyrrolo[1,2-a]quinoxalin-5(4H)-yl)carbonyl]benzene-1,3-diol] returned a melting point of 198 to 201 °C.

Turning to `CCC1c2ccc(F)n2-c2ccc(F)cc2N1S(=O)(=O)c1ccc(O)c(C)c1` (stereo not drawn) [Example 28, 4-[(4-ethyl-1,7-difluoropyrrolo[1,2-a]quinoxalin-5-(4H)-yl)sulfonyl]-2-methylphenol], in the data set on ER/Nf-kB, the IC50 came out at 52 nM and the “ER/Nf-kB Efficacy” value is given as 105%. In the data set with creatine kinase, the “CK Efficacy” value was 45%.

As for `CC[C@H]1c2ccc(C#N)n2-c2cc(F)c(F)cc2N1S(=O)(=O)c1ccc(OS(N)(=O)=O)cc1` [Example 104, 4-{[(4S)-1-cyano-4-ethyl-7,8-difluoropyrrolo[1,2-a]quinoxalin-5(4H)-yl]sulfonyl}phenyl sulfamate], the melting point is 196 to 201 °C. Also, in the data set with IL-6, the IC50 was 178 nM and the Emax amounted to 110%.

Turning to `CCC1c2cccn2-c2ccc(C(F)(F)F)cc2N1S(=O)(=O)c1ccc(O)c(C)c1` (stereo not drawn) [Example 58, 4-{[4-ethyl-7-(trifluoromethyl)pyrrolo[1,2-a]quinoxalin-5-(4H)-yl]sulfonyl}-2-methylphenol], in the data set with ER/Nf-kB, it took 85 nM to reach half-maximal inhibition (IC50) and the “ER/Nf-kB Efficacy” value is 132%. Also, the “CK Efficacy” value in the data set on creatine kinase is 42%.

As to `CCC1c2cccn2-c2ccc(Cl)cc2N1S(=O)(=O)c1ccc(O)c(C)c1` (stereo not drawn) [Example 68A, 4-[(7-chloro-4-ethylpyrrolo[1,2-a]quinoxalin-5-(4H)-yl)sulfonyl]-2-methylphenol], in the data set with ER/Nf-kB, half-maximal inhibition (IC50) required 93 nM and the “ER/Nf-kB Efficacy” value is 105%. The “CK Efficacy” value in the data set with creatine kinase stood at 49%.

Regarding `CCC1c2ccc(F)n2-c2ccc(Br)cc2N1S(=O)(=O)c1ccc(O)cc1` (stereo not drawn) [Example 45, 4-[(7-bromo-4-ethyl-1-fluoropyrrolo[1,2-a]quinoxalin-5-(4H)-yl)sulfonyl]phenol], in the data set with ER/Nf-kB, the IC50 worked out at 12 nM and the “ER/Nf-kB Efficacy” value was determined as 95%. In the data set on creatine kinase, the “CK Efficacy” value turned out to be 53%.

Regarding `CC1c2cccn2-c2cc(F)c(F)cc2N1S(=O)(=O)c1ccc(O)cc1` (stereo not drawn) [Example 10, 4-[(7,8-difluoro-4-methylpyrrolo[1,2-a]quinoxalin-5-(4H)-yl)sulfonyl]phenol], in the data set with ER/Nf-kB, 14 nM corresponded to half-maximal inhibition (IC50) and the “ER/Nf-kB Efficacy” value came out at 97%. For the same molecule, the “CK Efficacy” value with creatine kinase is on record as 39%.

Take `CC[C@H]1c2cccn2-c2cc(F)c(F)cc2N1S(=O)(=O)c1ccc(O)c(C)c1` [102 (S), 4-{[(4S)-4-ethyl-7,8-difluoropyrrolo[1,2-a]quinoxalin-5(4H)-yl]sulfonyl}-2-methylphenol]: the melting point lay in the range of 161 to 163 °C. Also, in the data set on IL-6, the IC50 came out at 8.4 nM and the Emax came to 161%.

With `CCC1c2cccn2-c2cc(OC)c(F)cc2N1S(=O)(=O)c1ccc(O)cc1` (stereo not drawn) [Example 75, 4-[(4-ethyl-7-fluoro-8-methoxypyrrolo[1,2-a]quinoxalin-5-(4H)-yl)sulfonyl]phenol], in the data set on ER/Nf-kB, the IC50 was determined as 36 nM and the “ER/Nf-kB Efficacy” value amounted to 84%. Moreover, in the data set with creatine kinase, the “CK Efficacy” value is 46%.

Turning to `CC[C@@H]1c2cccn2-c2ccc(Cl)cc2N1C(=O)c1ccc(O)cc1O` [125 (R), 4-{[(4R)-7-chloro-4-ethylpyrrolo[1,2-a]quinoxalin-5(4H)-yl]carbonyl}benzene-1,3-diol], the melting point lay in the range of 213 to 214 °C. Also, in the data set with IL-6, it took 0.4 nM to reach half-maximal inhibition (IC50) and the Emax came out at 120%.

Turning to `CCC1c2cccn2-c2ccc(C(F)(F)F)cc2N1S(=O)(=O)c1ccc(O)c(Cl)c1` (stereo not drawn) [Example 61, 2-chloro-4-{[4-ethyl-7-(trifluoromethyl)pyrrolo[1,2-a]quinoxalin-5-(4H)-yl]sulfonyl}phenol], in the data set with ER/Nf-kB, the IC50 was determined as 10000 nM and the “ER/Nf-kB Efficacy” value amounted to 69%. In addition, in the data set on creatine kinase, the “CK Efficacy” value came out at 15%.

Turning to `CCOC(=O)Oc1ccc(S(=O)(=O)N2c3ccc(Cl)cc3-n3cccc3C2CC)cc1` (stereo not drawn) [Example 70, 4-[(8-chloro-4-ethylpyrrolo[1,2-a]quinoxalin-5-(4H)-yl)sulfonyl]phenyl ethyl carbonate], in the data set with ER/Nf-kB, it took 150 nM to reach half-maximal inhibition (IC50) and the “ER/Nf-kB Efficacy” value is reported as 98%. Besides, in the data set with creatine kinase, the “CK Efficacy” value is listed as 45%.

The molecule `CCC1c2cccn2-c2ccc(F)cc2N1C(=O)c1ccc(O)cc1O` (stereo not drawn) [Example 120, 4-[(4-ethyl-7-fluoropyrrolo[1,2-a]quinoxalin-5(4H)-yl)carbonyl]benzene-1,3-diol] showed a melting point of 153 to 155 °C.

For the molecule `CCC1c2cccn2-c2ccc(F)cc2N1C(=O)c1cccc(O)c1` (stereo not drawn) [Example 126, 3-[(4-ethyl-7-fluoropyrrolo[1,2-a]quinoxalin-5(4H)-yl)carbonyl]phenol], the melting point lay within 115 to 117 °C.

Regarding `CCC1c2ccc(C#N)n2-c2ccc(Br)cc2N1S(=O)(=O)c1ccc(O)cc1` (stereo not drawn) [Example 80, 7-bromo-4-ethyl-5-[(4-hydroxyphenyl)sulfonyl]-4,5-dihydropyrrolo[1,2-a]quinoxaline-1-carbonitrile], the melting point was 190 to 192 °C. In the data set on IL-6, the IC50 is 444 nM and the Emax was determined as 103%.

`CC[C@@H]1c2ccc(C#N)n2-c2cc(F)c(F)cc2N1S(=O)(=O)c1ccc(O)cc1` [Example 101 (R), (4R)-4-ethyl-7,8-difluoro-5-[(4-hydroxyphenyl)sulfonyl]-4,5-dihydropyrrolo[1,2-a]quinoxaline-1-carbonitrile] returned a melting point of 194 to 195 °C.

For the molecule `CCC1c2cccn2-c2ccc(Br)cc2N1S(=O)(=O)c1ccc(O)cc1` (stereo not drawn) [Example 44, 4-[(7-bromo-4-ethylpyrrolo[1,2-a]quinoxalin-5-(4H)-yl)sulfonyl]phenol], in the data set with ER/Nf-kB, the IC50 stood at 42 nM and the “ER/Nf-kB Efficacy” value is 97%. For the same molecule, the “CK Efficacy” value in the data set on creatine kinase is 51%.

As for `CCC1c2cccn2-c2ccc(F)cc2N1S(=O)(=O)c1cc(C)c(O)c(C)c1` (stereo not drawn) [Example 38, 4-[(4-ethyl-7-fluoropyrrolo[1,2-a]quinoxalin-5-(4H)-yl)sulfonyl]-2,6-dimethylphenol], in the data set on ER/Nf-kB, the IC50 amounted to 201 nM and the “ER/Nf-kB Efficacy” value amounted to 109%. Besides, in the data set with creatine kinase, the “CK Efficacy” value is given as 38%.

Regarding `CCC1c2cccn2-c2cc(Cl)ccc2N1S(=O)(=O)c1ccc(O)cc1` (stereo not drawn) [Example 71, 4-[(8-chloro-4-ethylpyrrolo[1,2-a]quinoxalin-5-(4H)-yl)sulfonyl]phenol], in the data set with ER/Nf-kB, half-maximal inhibition (IC50) required 175 nM and the “ER/Nf-kB Efficacy” value was found to be 101%. The “CK Efficacy” value in the data set with creatine kinase was determined as 34%.

`CCC1c2cccn2-c2ccc(F)cc2N1S(=O)(=O)c1ccc(O)cc1` (stereo not drawn) [Example 21, 4-[(4-ethyl-7-fluoropyrrolo[1,2-a]quinoxalin-5-(4H)-yl)sulfonyl]phenol]: in the data set on ER/Nf-kB, inhibition was half-maximal at 71 nM (IC50) and the “ER/Nf-kB Efficacy” value was 97%. Moreover, the “CK Efficacy” value in the data set on creatine kinase was 38%.

`CCC1c2cccn2-c2cc(F)c(F)cc2N1S(=O)(=O)c1ccc(O)cc1` (stereo not drawn) [Example 7, 4-[(4-ethyl-7,8-difluoropyrrolo[1,2-a]quinoxalin-5-(4H)-yl)sulfonyl]phenol]: in the data set on ER/Nf-kB, the IC50 is 26 nM and the “ER/Nf-kB Efficacy” value worked out at 113%. For the same molecule, in the data set with creatine kinase, the “CK Efficacy” value is on record as 37%.

Broadly, the IC50 is the concentration that inhibits the measured activity by half. As usually defined, the melting point is the temperature, or range, at which the solid turns liquid.
